Measured values taken from patent US6677373B2, “Polymorphic B form of 3-(cyclopropylmethoxy)-4-[4-(methylsulfonyl)phenyl]-5,5-dimethyl-5H-furan-2-one” (Merial Limited, priority 1999, dated 2004).

Assays:
Format in all cases: physicochemical
[1] = Carr Index (compressibility index, flowability) of unmilled product
Text: After crystallization and before micronization, the Carr Index of B form is lower than 10 (in %). The Carr Index CI is defined as: [formula] where P is the packed bulk density (g cm^−3), L is the loose bulk density (g cm^−3). CI is also know as a compressibility index. A low figure for CI corresponds to a high degree of flowability. The Carr Index way be calculated from Mercury Intrusion Porosimetry or measured by Tap—Tap.

[2] = Thermodynamic stability of the polymorphs, DSC (Differential Scanning Calorimetry); conditions: for thermodynamic stability: compared with Polymorph A, monotropic system according to Burger's rule
Description: an endothermal peak around 90-100° C. due to melting of A form,
an exothermal peak corresponding to the transition A→B,
an endothermal peak around 120° C. due to melting of B form,
a very small exothermal peak corresponding to the transition A→B,
an endothermal peak due to melting of B form.
Therefore, the transition A→B is under kinetic control as usual in case of polymorphism. The transition from A to B may also be followed by X-Ray under heating (FIG. 7).

[3] = Solubility in methyltertiobutylether on recrystallization; conditions: solid at 6.3% weight in methyltertiobutylether
Text: Recrystallization of polymorph A for purification purposes leaded to solubility problems in methyltertiobutylether.

With CC1(C)OC(=O)C(OCC2CC2)=C1c1ccc(S(C)(=O)=O)cc1 [Polymorph B, 3-(cyclopropylmethoxy)-4-[4-(methylsulfonyl)phenyl]-5,5-dimethyl-5H-furan-2-one] the “Carr Index” value ([1]; after crystallization and before micronization) was “lower than 10%”, the flow characteristics ([1]; compared with Polymorph A) was “better flow characteristics than Polymorph A” and the “Carr Index” value ([1]; unmilled product, Recrystallisation in MTBE, Lab scale) was 2 to 3%. For the same molecule, the “Carr Index” value ([1]; unmilled product, Recrystallisation in MTBE, Pilot scale) was 2 to 4%, the thermodynamic stability [2] was “thermodynamically more stable than Polymorph A” and the thermodynamic stability ([2]; listed as B form) was “the most stable form”.

In the case of CC1(C)OC(=O)C(OCC2CC2)=C1c1ccc(S(C)(=O)=O)cc1 [3-(cyclopropylmethoxy)-4-(4-methylsulfonyl)phenyl-5,5-dimethylfuranone], the solubility in methyltertiobutylether [3] is reported as “could no longer be solubilised”.

With CC1(C)OC(=O)C(OCC2CC2)=C1c1ccc(S(C)(=O)=O)cc1 [Polymorph A, 3-(cyclopropylmethoxy)-4-[4-(methylsulfonyl)phenyl]-5,5-dimethyl-5H-furan-2-one] the “Carr Index” value ([1]; unmilled product, crystallisation process: Lab scale) was 26 to 27%, the “Carr Index” value ([1]; unmilled product, crystallisation process: Pilot scale) was 29 to 33% and the “behaviour when heated (DSC)” value ([2]; depending on the heating rate (40° C./mn, 2° C./mn)) was “transforms to form B”.
